Where “and” joins values, the source holds several entries; their conditions need not be identical. Equal entries are not always repeated.
Legend:
ERK = assay: striatum pERK/ERK in WT and fmr1 KO mice treated with acamprosate; assay type: in vivo; set-up: ERK / Total: unit not given here
Description: FIG. 4. Bar graph of pERK activity measured in WT and fmr1 KO mice treated with acamprosate
Referring now to FIG. 4. A summary of data collected using mouse models for ASD to measure the effect of acamprosate on the levels of ERK activity in wild-type and fmr1 (fragile X gene) Knock Out mice.

[1] = tested on: glutamate or GABA receptors subtypes; details: clinically relevant concentrations; cited from earlier work
[2] = tested on: patients diagnosed with FXS; assay: 10-week open-label trial of acamprosate in youth with FXS: behavioral outcome measures; assay type: in vivo, human; set-up: key to mean CGI-I at endpoint: CGI-I score: 1 = very much improved, 2 = much improved; details: for Aberrant Behavior Checklist-Social Avoidance (ABC-SA), End point (mean ± SD): baseline 3.3 ± 2.6; for Clinical Global Impressions-Severity (CGI-S), End point (mean ± SD): baseline 4.25 ± 0.45; for Clinical Global Impressions-Severity (CGI-S), End point (mean ± SD) / ADHD Rating Scale 4th Edition (ADHD-RS), End point (mean ± SD): p<0.0001; for Aberrant Behavior Checklist-Social Withdrawal (ABC-SW), End point (mean ± SD): baseline 8.8 ± 5.8, p=0.04 (Table 5: 7.33 ± 5.2, p=0.014); for Aberrant Behavior Checklist-Hyperactivity (ABC-H), End point (mean ± SD): baseline 16.8 ± 9.1, p=0.009; for ADHD Rating Scale 4th Edition (ADHD-RS), End point (mean ± SD): baseline 23.6 ± 10.6; for Vineland Adaptive Behavior Scale (VABS) Communication Domain, End point (mean ± SD): baseline 63.4 ± 10.1, p=0.03; for VABS Expressive Communication Subdomain, End point (mean ± SD): baseline 69.8 ± 23.0; for Social Responsiveness Scale total score (SRS), End point (mean ± SD): baseline 91.3 ± 27.4, p=0.005
Description: The Institutional Review Board (IRB) at an academic medical center approved this study. Thirteen outpatient males and females aged 5 to 17 years with body weight≥15 kg were recruited for this study. Written informed consent was obtained from each participant's legal guardian (parent for all children in this report), and subjects provided assent when able. Diagnosis of FXS was confirmed by Southern Blot and PCR results consistent with a greater than 200 CGG repeat expansion in the fmr1 gene with at least partial gene methylation. Subjects had to be free of other significant medical conditions. The concomitant use of psychotropic drugs that are not thought to impact glutamate neurotransmission were allowed so long as the patients experienced stable dosing at least 4 weeks prior to baseline. Subjects were required to have a mental age of greater than 18 months as determined by the Stanford-Binet 5th Edition. Additional inclusion criteria included a CGI-S (Guy 1976) score of at least 4 (“Moderately Ill”). Subjects with a Diagnostic and Statistical Manual of Mental Disorders, 4th Edition, Text Revision (DSM-IV-TR) diagnosis of a psychotic disorder, bipolar disorder, or substance use disorder were excluded from the study. Additionally, subjects with a positive urine pregnancy test, creatinine clearance of <30, active seizure disorder, or other significant medical condition were excluded.
A 10-week, prospective, open-label study design was chosen to gather pilot data for potential future larger-scale, double-blind, placebo-controlled studies in this population.
All subjects underwent a screening and baseline visit followed by follow-up visits every 2 weeks during the 10-week open-label trial period. At the end of weeks 1, 3, and 5 the investigators called the parent to assess drug tolerability and to make dose adjustments as indicated. All subjects received 333 mg/day of acamprosate during the first week of the study. The investigators then increased the dosage to a maximum of 1,998 mg/day (weight>50 kg) or 1,332 mg/day (weight<50 kg) over the first six weeks of the study, if optimal clinical response (CGI-I equal to 1 “very much improved”) had not occurred and intolerable adverse effects had not emerged. The dose maintenance phase lasted 4 weeks at the optimal dosage.
The CGI-S assessment was administered at screen and at baseline as part of the eligibility criteria described above. In this study, the rater scored the CGI-S in regard to severity of symptoms commonly noted in FXS including, but not limited to, inattention/hyperactivity, social impairment, communication impairment, repetitive behavior, irritability, and anxiety. The CGI-S is rated on a scale from 1 to 7 (1=normal, not ill at all; 2=borderline ill; 3=mildly ill; 4=moderately ill; 5=markedly ill; 6=severely ill; 7=among the most extremely ill patients with FXS). The Autism Diagnostic Observation Schedule (ADOS) (Lord, Rutter et al. 1989) was administered at baseline to characterize potential concomitant ASD diagnosis.
The primary outcome measure was the CGI-I. The CGI-I is a scale designed to assess global change from baseline. […] Treatment response was defined by a CGI-I score of 1 “very much improved” or 2 “much improved.” In this study, the CGI-I was utilized as a general global primary outcome measure given the uncertainty as to what specific symptoms/behaviors associated with FXS may be expected to improve or worsen with use of acamprosate. The CGI-I was administered at all visits after baseline.
Secondary outcome measures included all subscales of the ABC (Irritability, Social Withdrawal, Stereotypy, Hyperactivity, and Inappropriate Speech). The ABC is an informant-rated (primary caregiver) measure with confirmed reliability and validity with regard to factor structure, distribution of scores, and sensitivity to change in persons with developmental disability (Aman, Singh et al. 1985). […]

[3] = tested on: fmr1 (fragile X gene) Knock Out mice; assay: training/test exploration and P.I. in WT and fmr1 KO mice; assay type: in vivo; set-up: training left / training right / training Total / test novel / test fam / test total: unit not given here
GABA(A) = details: animal studies; cited from earlier work
[4] = tested on: youths symptomatic for an autistic disorder; details: mean dose 1,110 mg/day, 10 to 30 weeks; cited from earlier work
[5] = STRIATUM, KO Acam, individual mice, listed as Acam
[6] = FXS, n=12, 10 weeks, listed as acamprosate
[7] = FXS, mean change from baseline to endpoint divided by SD at baseline

With `CC(=O)NCCCS(=O)(=O)O` [Acamprosate, 3-Acetamidopropane-1-sulfonic acid] the “A = ERK/Total” value (ERK; [5]) was 1.31 and 1.57 and 2.78 and 2.43 and 2.19 and 2.25 and 1.71, the ERK (ERK; [5]) was 24161 and 32570 and 26811 and 27464 and 25163 and 21441 and 25808 and the Total (ERK; [5]) was 18506 and 20784 and 9659 and 11290 and 11468 and 9535 and 15062. The pERK (ERK; [5]) was 26311 and 37905 and 34961 and 25699 and 25451 and 19381 and 25020, the pERK/A (ERK; [5]) was 20152.78 and 24188.44 and 12595.14 and 10564.44 and 11599.26 and 8618.90 and 14602.11 and the pERK/A (ERK; STRIATUM, KO Acam, individual mice, listed as acamp) was 20152.78 and 24188.44 and 12595.14 and 10564.44 and 11599.26 and 8618.90 and 14602.11. For the same compound, the “pERK (group mean of pERK/A)” value (ERK; STRIATUM, KO acamp, WT sal 14455.22, KO sal 21048.75, T Test 0.96 vs WT, 0.20 vs KO sal) was 14617.30, the “effect on ERK activation in fmr1 knockout animals” value (ERK; fmr1 knockout animals) was “restores activated ERK to wild-type levels” and the “direct binding to glutamate or GABA receptors subtypes” value [1] was “no direct binding”. The “Treatment responders (CGI-I score of 1 very much improved or 2 much improved)” value ([2]; 12 youth with FXS, 10 weeks, mean final dose 1054 mg/day) was 75%, the “Other subscales of the ABC and the CY-BOCS-PDD” value ([2]; FXS, 10 weeks) was “did not change significantly during treatment” and the “SRS Social Awareness and Autistic Mannerisms subscales” value ([2]; FXS, 10 weeks) was “Improvement was not noted”. For the same compound, the “decline of mean ABC-H score, baseline to endpoint” value ([2]; FXS, 10 weeks) was 35%, the “decline of mean ABC-SA score, baseline to endpoint” value ([2]; FXS, 10 weeks) was 51% and the “decline of mean ABC-SW score, baseline to endpoint” value ([2]; FXS, 10 weeks) was 53%. For the same compound, the “decline of mean ADHD-RS score, baseline to endpoint” value ([2]; FXS, 10 weeks) was 29%, the “decline of mean total SRS raw score, baseline to endpoint” value ([2]; FXS, 10 weeks) was 16% and the “improvement of mean VABS Communication Domain standard score” value ([2]; FXS, 10 weeks) was 5%. The “improvement of mean VABS Expressive Communication score” value ([2]; FXS, 10 weeks) was 13%, the “other domains of the VABS” value ([2]; FXS, 10 weeks) was “No other changes with treatment were noted” and the “Peabody Picture Vocabulary Test (PPVT), End point (mean ± SD)” value ([2]; FXS, 10 weeks, baseline 85.2 ± 32.0, p=0.53) was “did not significantly change with treatment”. For the same compound, the “decline of SRS Social Motivation subscale” value ([2]; FXS, 10 weeks, p=0.003) was 28%, the “decline of SRS Social Cognition subscale” value ([2]; FXS, 10 weeks, p=0.01) was 19% and the “decline of SRS Social Communication subscale” value ([2]; FXS, 10 weeks, p=0.01) was 14%. The “mean CGI-I at endpoint” value ([2]; FXS, Week 10, scale 1-7) was 1.92 and 1.9, the “Aberrant Behavior Checklist-Social Avoidance (ABC-SA), End point (mean ± SD)” value ([2]; FXS, n=12, 10 weeks, p=0.01) was 1.6 ± 2.7 and the “Aberrant Behavior Checklist-Social Avoidance (ABC-SA), End point (mean ± SD)” value ([2]; FXS, n=12, 10 weeks, p=0.01, listed as acamprosate) was 1.6. For the same compound, the “Clinical Global Impressions-Severity (CGI-S), End point (mean ± SD)” value ([2]; FXS, n=12, 10 weeks) was 3.33 ± 0.5 and 3.33 ± 0.49, the “Clinical Global Impressions-Severity (CGI-S), End point (mean ± SD)” value [2, 6] was 3.33 and the “Aberrant Behavior Checklist-Inappropriate Speech (ABC-IS), End point (mean ± SD)” value ([2]; FXS, n=12, 10 weeks, baseline 5.2 ± 3.5, p=0.61) was 4.8 ± 3.4. For the same compound, the “Aberrant Behavior Checklist-Social Withdrawal (ABC-SW), End point (mean ± SD)” value ([2]; FXS, n=12, 10 weeks) was 4.1 ± 6.5, the “Aberrant Behavior Checklist-Social Withdrawal (ABC-SW), End point (mean ± SD)” value [2, 6] was 4.1 and the “Aberrant Behavior Checklist-Irritability (ABC-I), End point (mean ± SD)” value ([2]; FXS, n=12, 10 weeks, baseline 9.9 ± 7.8, p=0.11) was 7.0 ± 8.9. For the same compound, the “Children's Yale-Brown Obsessive Compulsive Scale Modified for PDD (CY-BOCS-PDD), End point (mean ± SD)” value ([2]; FXS, n=12, 10 weeks, baseline 11.1 ± 2.6, p=0.15) was 9.8 ± 4.1, the “Aberrant Behavior Checklist-Hyperactivity (ABC-H), End point (mean ± SD)” value ([2]; FXS, n=12, 10 weeks) was 11.0 ± 8.6 and the “Aberrant Behavior Checklist-Hyperactivity (ABC-H), End point (mean ± SD)” value [2, 6] was 11.0. The “ADHD Rating Scale 4th Edition (ADHD-RS), End point (mean ± SD)” value ([2]; FXS, n=12, 10 weeks) was 16.7 ± 8, the “ADHD Rating Scale 4th Edition (ADHD-RS), End point (mean ± SD)” value [2, 6] was 16.7 and the “Vineland Adaptive Behavior Scale (VABS) Communication Domain, End point (mean ± SD)” value ([2]; FXS, n=12, 10 weeks) was 66.6 ± 11.2. The “Vineland Adaptive Behavior Scale (VABS) Communication Domain, End point (mean ± SD)” value [2, 6] was 66.6, the “VABS Expressive Communication Subdomain, End point (mean ± SD)” value ([2]; FXS, n=12, 10 weeks, p=0.003) was 78.9 ± 21.2 and the “VABS Expressive Communication Subdomain, End point (mean ± SD)” value ([2]; FXS, n=12, 10 weeks, p=0.003, listed as acamprosate) was 78.9. For the same compound, the “Social Responsiveness Scale total score (SRS), End point (mean ± SD)” value ([2]; FXS, n=12, 10 weeks) was 76.4 ± 26.8 and 76.42 ± 26.8, the “Social Responsiveness Scale total score (SRS), End point (mean ± SD)” value [2, 6] was 76.4 and the “Effect Size, ABC-H” value [2, 7] was 0.64. The “Effect Size, ABC-SA” value [2, 7] was 0.64, the “Effect Size, ABC-SW” value [2, 7] was 0.81 and the “Effect Size, ADHD-RS” value [2, 7] was 0.65. For the same compound, the “Effect Size, CGI-S” value [2, 7] was 2.0, the “Effect Size, SRS total score” value [2, 7] was 0.54 and the “Effect Size, VABS Communication Domain” value [2, 7] was 0.32. For the same compound, the “Effect Size, VABS Expressive Communication Subdomain” value [2, 7] was 0.4, the “Effect Size, VABS Communication Domain” value ([2]; FXS, mean change from baseline to endpoint divided by SD at baseline, listed as acamprosate) was 0.3 and the “youth judged responders to acamprosate (of those treated)” value ([2]; youth with FXS, pre-specified indicators of clinical response) was 9 of 12. For the same compound, the “training P.I. average (mean)” value ([3]; KO Acam group, KO Sal 0.022521, WT Sal 0.193298) was 0.06358, the “test P.I. average (mean)” value ([3]; KO Acam group, KO Sal 0.134837, WT Sal 0.167142) was 0.2684 and the “test P.I.” value ([3]; KO Acam, individual mice) was 0.3192 and 0.2294 and 0.5255 and 0.2717 and 0.3025 and −0.1161 and 0.3463. For the same compound, the test fam ([3]; KO Acam, individual mice) was 24.3 and 40.3 and 28.38 and 28.7 and 32.28 and 47.59 and 30.2, the test novel ([3]; KO Acam, individual mice) was 47.09 and 64.3 and 91.23 and 50.11 and 60.28 and 37.69 and 62.2 and the test total ([3]; KO Acam, individual mice) was 71.39 and 104.6 and 119.61 and 78.81 and 92.56 and 85.28 and 92.4. The “training P.I.” value ([3]; KO Acam, individual mice) was 0.1811 and 0.1143 and 0.08976 and −0.105 and 0.1648 and −0.1088 and 0.1088, the “training Total” value ([3]; KO Acam, individual mice) was 89.27 and 135.74 and 82.44 and 97.27 and 78.95 and 159.13 (2×) and the training left ([3]; KO Acam, individual mice) was 52.72 and 75.63 and 44.92 and 43.53 and 45.98 and 70.91 and 88.22. The training right ([3]; KO Acam, individual mice) was 36.55 and 60.11 and 37.52 and 53.74 and 32.97 and 88.22 and 70.91, the “action at GABA(A)” value (GABA(A)) was “exhibits GABA(A) agonism” and the “youths judged treatment responders” value [4] was “five of six”.

From US11733243B2, “Use of acamprosate to modulate ERK1/2 activation in animal models for FXS and ASD and individuals diagnosed with FXS and ASD” (Indiana University Research and Technology Corporation, priority 2013, dated 2023)
